Laboratory results published in patent US20250339436A1, “CRYSTALLINE FORMS OF MRTX1133” (MIRATI THERAPEUTICS, INC., priority 2024, published 2025).
“Also recorded” adds a separate entry of the source. Marks after values point to notes of the source that are not given here.

Legend:
Format in all cases: physicochemical
[1] = Thermogravimetric analysis (TGA)
Description: Thermogravimetric Analysis (TGA)
Instrument: Discovery 5500
Parameters: Nitrogen Flow balance 10 mL/min; sample 25 mL/min; start temperature: ambient condition (below 35° C.); final temperature: 300° C.; heating rate: 10° C./min; sample mass ˜2-10 mg. […]

[2] = Accelerated stability study of MRTX1133 amorphous form vs crystalline Forms VIII and IX; settings: for stability under the conditions tested (conclusion): 25° C./60% RH and 40° C./75% RH; for trend of impurity values and assay results: all tested storage conditions
Description: Chemical stability and water content studies were conducted on amorphous MRTX1133 and MRTX1133 Forms VIII and IX according to well-known methods summarized below.
The stability studies of the amorphous form were done as follows.
The required amount was placed in a clear Class A glass bottle, 24 mL, with closed-top cap, sealed in opaque resealable Zipper bag. Per each storage condition there was one bottle, and the sampling was performed from the same bottle. Each bottle was labeled with protocol number, compound ID, lot number and storage condition.
The experimental conditions for stability testing of Forms VIII and IX were similar. However, the samples were placed in double LDPE bags filled with nitrogen protection, then placed into a heat-sealed foil bag, and into an HDPE container containing desiccant packs.

[3] = Bulk stability studies of MRTX1133 Forms II, VI, VIII and IX (solid state, 1-2 weeks); settings: for Initial Purity by UPLC: before storage
Description: Stability studies of all four forms were conducted according to well-known methods. The results are summarized below in Tables 4-11.

[4] = Dynamic vapor sorption (DVS); settings: 25° C./95% RH
Description: Dynamic Vapor Sorption (DVS)
Instrument: Intrinsic, Advantage or Adventure;
Total gas flow: 200 sccm; oven temperature: 25° C., solvent: water; method: • Cycle: 40-0-95-0-40% RH • Stage Step: 10% • Equilibrium: 0.002 dm/dt (%/min) Minimum dm/dt stability duration: 60 min • Maximum dm/dt stage time: 360 min

[5] = 25° C./60% RH, open container, 1 week
[6] = 25° C./60% RH, open container, 2 weeks
[7] = 25° C./92.5% RH, open container, 1 week
[8] = 25° C./92.5% RH, open container, 2 weeks
[9] = 40° C./75% RH, open container, 1 week
[10] = 40° C./75% RH, open container, 2 weeks
[11] = 60° C., tight container, 1 week
[12] = 60° C., tight container, 2 weeks
[13] = 40° C./75% RH, 2M, by HPLC, listed as amorphous
[14] = 40° C./75% RH, 3M, by HPLC, listed as amorphous

C#Cc1c(F)ccc2cc(O)cc(-c3ncc4c(N5C[C@H]6CC[C@@H](C5)N6)nc(OC[C@@]56CCCN5C[C@H](F)C6)nc4c3F)c12 [Form VIII, 4-(4-((1R,5S)-3,8-diazabicyclo[3.2.1]octan-3-yl)-8-fluoro-2-(((2R,7aS)-2-fluorohexahydro-1H-pyrrolizin-7a-yl)methoxy)pyrido[4,3-d]pyrimidin-7-yl)-5-ethynyl-6-fluoronaphthalen-2-ol]
onset of degradation as estimated by TGA [1]: about 180 °C | weight loss observed by TGA ([1]; before 180° C. (onset of degradation)): about 0.7% | weight loss observed by TGA ([1]; before 180° C. (onset of degradation), listed as MRTX1133 Form VIII): 0.7% weight loss observed | stability under the conditions tested (conclusion) [2]: much more stable; also recorded: stable | Moisture ([2]; 25° C./60% RH, 1M): 0.64 % w/w | Assay ([2]; 25° C./60% RH, 1M, by HPLC): 96.8 w/w % | Total Impurities ≥ 0.05% ([2]; 25° C./60% RH, 1M, by HPLC): 2.1 Area % | Moisture ([2]; 25° C./60% RH, 3M): 0.49 % w/w | Assay ([2]; 25° C./60% RH, 3M, by HPLC): 97.3 w/w % | Total Impurities ≥ 0.05% ([2]; 25° C./60% RH, 3M, by HPLC): 2.1 Area % | Moisture ([2]; 25° C./60% RH, 6M): 0.53 % w/w | Assay ([2]; 25° C./60% RH, 6M, by HPLC): 96.4 w/w % | Total Impurities ≥ 0.05% ([2]; 25° C./60% RH, 6M, by HPLC): 1.9 Area % | moisture content trend ([2]; 40° C./75% RH): relatively stable | Moisture ([2]; 40° C./75% RH, 1M): 0.62 % w/w | Assay ([2]; 40° C./75% RH, 1M, by HPLC): 96.6 w/w % | Total Impurities ≥ 0.05% ([2]; 40° C./75% RH, 1M, by HPLC): 2.2 Area % | Moisture ([2]; 40° C./75% RH, 3M): 0.54 % w/w | Assay ([2]; 40° C./75% RH, 3M, by HPLC): 97.4 w/w % | Total Impurities ≥ 0.05% ([2]; 40° C./75% RH, 3M, by HPLC): 2.3 Area % | Moisture ([2]; 40° C./75% RH, 6M): 0.78 % w/w | Assay ([2]; 40° C./75% RH, 6M, by HPLC): 96.1 w/w % | Total Impurities ≥ 0.05% ([2]; 40° C./75% RH, 6M, by HPLC): 2.2 Area % | Moisture ([2]; T(0)): 0.55 % w/w | Assay ([2]; T(0), by HPLC): 96.9 w/w % | Total Impurities ≥ 0.05% ([2]; T(0), by HPLC): 2.5 Area % | trend of impurity values and assay results [2]: no increases in impurity values and no decreases in assay results | Bulk (UPLC) purity [3, 5]: 98.0% | Bulk (UPLC) purity [3, 6]: 98.0% | Bulk (XRPD) form [3, 6]: No form change | Bulk color [3, 6]: no change of color | Bulk (UPLC) purity [3, 7]: 98.1% | Bulk (UPLC) purity [3, 8]: 98.0% | Bulk (XRPD) form [3, 8]: No form change | Bulk color [3, 8]: no change of color | Bulk (UPLC) purity [3, 9]: 98.0% | Bulk (XRPD) form [3, 9]: No form change | Bulk (UPLC) purity [3, 10]: 98.1% | Bulk (XRPD) form [3, 10]: No form change | Bulk color [3, 10]: no change of color | Bulk (UPLC) purity [3, 11]: 98.1% | Bulk (UPLC) purity [3, 12]: 98.1% | Bulk (XRPD) form [3, 12]: No form change | Bulk color [3, 12]: no change of color | Initial Purity by UPLC [3]: 98.0% | water uptake by DVS [4]: about 1.3% | water uptake by DVS ([4]; listed as MRTX1133 Form VIII): 1.3% water uptake at

C#Cc1c(F)ccc2cc(O)cc(-c3ncc4c(N5C[C@H]6CC[C@@H](C5)N6)nc(OC[C@@]56CCCN5C[C@H](F)C6)nc4c3F)c12 [Form IX, 4-(4-((1R,5S)-3,8-diazabicyclo[3.2.1]octan-3-yl)-8-fluoro-2-(((2R,7aS)-2-fluorohexahydro-1H-pyrrolizin-7a-yl)methoxy)pyrido[4,3-d]pyrimidin-7-yl)-5-ethynyl-6-fluoronaphthalen-2-ol]
onset of degradation as estimated by TGA [1]: about 190 °C | weight loss observed by TGA ([1]; before 190° C. (onset of degradation)): about 0.5% | weight loss observed by TGA ([1]; before 190° C. (onset of degradation), listed as MRTX1133 Form IX): 0.5% weight loss observed | stability under the conditions tested (conclusion) [2]: much more stable; also recorded: stable | Moisture ([2]; 25° C./60% RH, 1M): 0.56 % w/w | Assay ([2]; 25° C./60% RH, 1M, by HPLC): 98.0 w/w % | Total Impurities ≥ 0.05% ([2]; 25° C./60% RH, 1M, by HPLC): 1.5 Area % | Moisture ([2]; 25° C./60% RH, 2M): 0.65 % w/w | Assay ([2]; 25° C./60% RH, 2M, by HPLC): 97.6 w/w % | Total Impurities ≥ 0.05% ([2]; 25° C./60% RH, 2M, by HPLC): 1.4 Area % | Moisture ([2]; 25° C./60% RH, 3M): 0.70 % w/w | Assay ([2]; 25° C./60% RH, 3M, by HPLC): 98.2 w/w % | Total Impurities ≥ 0.05% ([2]; 25° C./60% RH, 3M, by HPLC): 1.7 Area % | Moisture ([2]; 25° C./60% RH, 6M): 0.66 % w/w | Assay ([2]; 25° C./60% RH, 6M, by HPLC): 98.5 w/w % | Total Impurities ≥ 0.05% ([2]; 25° C./60% RH, 6M, by HPLC): 1.7 Area % | moisture content trend ([2]; 40° C./75% RH): relatively stable | Moisture ([2]; 40° C./75% RH, 1M): 0.56 % w/w | Assay ([2]; 40° C./75% RH, 1M, by HPLC): 97.6 w/w % | Total Impurities ≥ 0.05% ([2]; 40° C./75% RH, 1M, by HPLC): 1.8 Area % | Moisture ([2]; 40° C./75% RH, 2M): 0.63 % w/w | Assay ([2]; 40° C./75% RH, 2M, by HPLC): 97.3 w/w % | Total Impurities ≥ 0.05% ([2]; 40° C./75% RH, 2M, by HPLC): 1.8 Area % | Moisture ([2]; 40° C./75% RH, 3M): 0.66 % w/w | Assay ([2]; 40° C./75% RH, 3M, by HPLC): 96.5 w/w % | Total Impurities ≥ 0.05% ([2]; 40° C./75% RH, 3M, by HPLC): 2.0 Area % | Moisture ([2]; 40° C./75% RH, 6M): 0.70 % w/w | Assay ([2]; 40° C./75% RH, 6M, by HPLC): 96.9 w/w % | Total Impurities ≥ 0.05% ([2]; 40° C./75% RH, 6M, by HPLC): 2.3 Area % | Moisture ([2]; T(0)): 0.94 % w/w | Assay ([2]; T(0), by HPLC): 96.2 w/w % | Total Impurities ≥ 0.05% ([2]; T(0), by HPLC): 1.2 Area % | trend of impurity values and assay results [2]: no increases in impurity values and no decreases in assay results | Bulk (UPLC) purity [3, 5]: 98.0% | Bulk (UPLC) purity [3, 6]: 98.0% | Bulk (XRPD) form [3, 6]: No form change | Bulk color [3, 6]: no change of color | Bulk (UPLC) purity [3, 7]: 97.9% | Bulk (UPLC) purity [3, 8]: 98.1% | Bulk (XRPD) form [3, 8]: No form change | Bulk color [3, 8]: no change of color | Bulk (UPLC) purity [3, 9]: 97.8% | Bulk (XRPD) form [3, 9]: No form change | Bulk (UPLC) purity [3, 10]: 98.0% | Bulk (XRPD) form [3, 10]: No form change | Bulk color [3, 10]: no change of color | Bulk (UPLC) purity [3, 11]: 97.9% | Bulk (UPLC) purity [3, 12]: 98.1% | Bulk (XRPD) form [3, 12]: No form change | Bulk color [3, 12]: no change of color | Initial Purity by UPLC [3]: 97.9%

C#Cc1c(F)ccc2cc(O)cc(-c3ncc4c(N5CC6CCC(C5)N6)nc(OC[C@@]56CCCN5C[C@H](F)C6)nc4c3F)c12 [Amorphous]
stability under the conditions tested (conclusion) [2]: not stable | Moisture ([2]; 25° C./60% RH, 1M): 3.4 % w/w | Assay ([2]; 25° C./60% RH, 1M, by HPLC): 89.5 w/w % | Total Impurities ≥ 0.05% ([2]; 25° C./60% RH, 1M, by HPLC): 4.35 Area % | Moisture ([2]; 25° C./60% RH, 2M): 4.2 % w/w | Assay ([2]; 25° C./60% RH, 2M, by HPLC): 87.7 w/w % | Total Impurities ≥ 0.05% ([2]; 25° C./60% RH, 2M, by HPLC): 4.74 Area % | Moisture ([2]; 25° C./60% RH, 3M): 4.6 % w/w | Assay ([2]; 25° C./60% RH, 3M, by HPLC): 86.1 w/w % | Total Impurities ≥ 0.05% ([2]; 25° C./60% RH, 3M, by HPLC): 6.13 Area % | Moisture ([2]; 40° C./75% RH, 1M): 2.7 % w/w | Assay ([2]; 40° C./75% RH, 1M, by HPLC): 82.8 w/w % | Total Impurities ≥ 0.05% ([2]; 40° C./75% RH, 1M, by HPLC): 8.03 Area % | Moisture ([2]; 40° C./75% RH, 2M): 5.2 % w/w | Assay ([2]; 40° C./75% RH, 2M, by HPLC): 70.1 w/w % | Total Impurities ≥ 0.05% ([2]; 40° C./75% RH, 2M, by HPLC): 13.21 Area % | Assay [2, 13]: 70 w/w % | Total Impurities ≥ 0.05% [2, 13]: 13.2 Area % | Moisture ([2]; 40° C./75% RH, 3M): 5.8 % w/w | Assay ([2]; 40° C./75% RH, 3M, by HPLC): 61.3 w/w % | Total Impurities ≥ 0.05% ([2]; 40° C./75% RH, 3M, by HPLC): 17.75 Area % | Assay [2, 14]: 61 w/w % | Total Impurities ≥ 0.05% [2, 14]: 17.8 Area % | Moisture ([2]; T(0)): 2.9 % w/w | Total Impurities ≥ 0.05% ([2]; T(0), by HPLC): 2.24 Area % | Total Impurities ≥ 0.05% ([2]; T(0), by HPLC, listed as amorphous): 2.2 Area % | Assay ([2]; T(0), by Q-NMR): 94.2^b w/w % | Assay ([2]; T(0), by Q-NMR, listed as amorphous): 94 w/w % | trend of impurity values and assay results [2]: substantial increases in impurity values and corresponding decreases in assay results
